Results taken from patent EP2316926B1, “Enantioselective production of alpha-hydroxy carbonyl compounds” (priority 2009, dated 2011).
Where “and” joins values, the source holds several entries; their conditions need not be identical. Equal entries are not always repeated. Values belong to the molecule of their own block, whether it stands above or below them.

How the values were obtained:
Gox0644 [1] = biological target: T1, Gox0644 (Gluconobacter oxydans, UniProt Q5FT75); assay: NADPH-dependent α-ketocarbonyl reductase activity assay (rate of decrease of NADPH at 340 nm); assay type: biochemical; settings: for Gox0644 U/mg*: Table 3, 10 mM substrate, 40 mM K-phosphate buffer pH 7.0, 0.05 mM NAD(P)H, 30 °C, U/mg = µmol x min^-1 x mg protein^-1
Protocol: Reactions were induced by addition of enzyme or substrate. One unit was defined as the amount of enzyme activity catalyzing the conversion of 1 µmol of pyridine nucleotide per min at 30 °C. NMR Analysis of Biotransformation Products: Biotransformations were extracted with equal volumes of CDCl3. and ^13C NMR spectra were recorded on a Bruker Avance 300 DPX spectrometer operating at 300 MHz for ^1H NMR and at 75 MHz for ^13C NMR, respectively.
Reactions were induced by addition of enzyme or substrate. One unit of activity was defined as the amount of enzyme activity catalyzing the conversion of 1 µmol of pyridine nucleotide per min at 30 °C.
The standard reaction mixture (1 ml) for the reduction reactions of substrates contained 10 mM substrate, 40 mM potassium phosphate buffer (K-phosphate buffer) pH 7.0, 0.05 mM NAD(P)H, and the enzyme unless otherwise noted. Reactions were induced by addition of enzyme or substrate. One unit of activity was defined as the amount of enzyme activity catalyzing the conversion of 1 µmol of pyridine nucleotide per min at 30 °C. […] Table 3: Enzymatic activities with α-diketones, α-ketoaldehydes and α-ketoesters

Gox1615 [2] = biological target: T2, Gox1615 (Gluconobacter oxydans, UniProt Q5FQJ0); assay: as above; assay type: biochemical; settings: for Gox1615 U/mg*: Table 3, 10 mM substrate, 40 mM K-phosphate buffer pH 7.0, 0.05 mM NAD(P)H, 30 °C, U/mg = µmol x min^-1 x mg protein^-1; for Specific Activity (U/mg)*: Table 5, cofactor NADPH, U/mg = µmol/mg·min
T2 sequence (Q5FQJ0 1-332): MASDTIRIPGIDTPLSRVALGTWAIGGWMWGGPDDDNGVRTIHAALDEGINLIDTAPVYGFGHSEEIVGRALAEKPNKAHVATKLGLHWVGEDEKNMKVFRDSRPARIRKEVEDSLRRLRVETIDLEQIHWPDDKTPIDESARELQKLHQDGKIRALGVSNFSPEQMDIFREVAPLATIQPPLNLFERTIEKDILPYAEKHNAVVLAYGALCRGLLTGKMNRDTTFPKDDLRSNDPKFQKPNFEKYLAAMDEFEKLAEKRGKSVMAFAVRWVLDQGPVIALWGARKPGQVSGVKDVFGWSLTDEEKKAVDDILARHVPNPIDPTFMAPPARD
Protocol: (§1) Measurement of enzyme activity: NADPH-dependent α-ketocarbonyl reductases were assayed by a routine method used for NAD(P)-linked enzymes by recording the rate of decrease of NADPH at 340 nm (ε = 6.22 mM^-1 x cm^-1)) with substrates at 30 °C. The reaction mixture (1 ml) for reduction of α-ketocarbonyl substrates contained 10 mM substrate, 40 mM potassium phosphate buffer pH 7.0, 0.025 mM NAD(P)H and the enzyme. Reactions were induced by addition of enzyme or substrate. One unit was defined as the amount of enzyme activity catalyzing the conversion of 1 µmol of pyridine nucleotide per min at 30 °C. NMR Analysis of Biotransformation Products: Biotransformations were extracted with equal volumes of CDCl3. and ^13C NMR spectra were recorded on a Bruker Avance 300 DPX spectrometer operating at 300 MHz for ^1H NMR and at 75 MHz for ^13C NMR, respectively. Spectra were processed using Bruker TonSpin 1.3 for Windows software and calibrated to the residual solvent peak of CDCl3 (δH = 7.26 / δC = 77.0).
NADPH-dependent α-ketocarbonyl reductases were assayed by a routine method used for NAD(P)-linked enzymes by recording the rate of decrease of NADPH at 340 nm (ε = 6.22 mM^-1.cm^-1) with substrates at 30 °C. The reaction mixture (1 ml) for reduction of α-ketocarbonyl substrates contained 10 mM substrate, 40 mM potassium phosphate buffer pH 7.0, 0.025 mM NADPH, and the enzyme. Reactions were induced by addition of enzyme or substrate. One unit of activity was defined as the amount of enzyme activity catalyzing the conversion of 1 µmol of pyridine nucleotide per min at 30 °C.
Purified NAD(P)-dependent oxidoreductases were assayed at 30 °C by a routine method used for NAD(P)-linked enzymes by recording the rate of decrease of NAD(P)H at 340 nm (ε = 6.22 mM^-1˙cm^-1) with substrates capable of reduction reactions. The standard reaction mixture (1 ml) for the reduction reactions of substrates contained 10 mM substrate, 40 mM potassium phosphate buffer (K-phosphate buffer) pH 7.0, 0.05 mM NAD(P)H, and the enzyme unless otherwise noted. Reactions were induced by addition of enzyme or substrate. One unit of activity was defined as the amount of enzyme activity catalyzing the conversion of 1 µmol of pyridine nucleotide per min at 30 °C. Measurement of the protein content was performed by the method of Bradford (Bradford M.M., Anal. Biochem. 72:248-254 (1976)). Table 3: Enzymatic activities with α-diketones, α-ketoaldehydes and α-ketoesters

Gox0644 [3] = biological target: T1, Gox0644; assay: Coupled-enzyme biotransformation with cofactor regeneration, product determined by NMR (regio- and stereoselectivity); assay type: biochemical
Protocol: as §1
Determination of the absolute configuration of the biotransformation product 2-hydroxy-pentan-3-one using chiral NMR shift solvents: Chiral NMR shift reagent (R,R)- and (S,S)-bis-α-methylbenzylamine-para-methyl (BMBA-p-Me) was prepared with small modifications according to the method reported by Kobayashi, Y et al., Tetrahedron Lett. 44: 7489-7491 (2003). In brief, the method of Marshall, J.A. and Mikowski, A. M., Org. Lett. 8:4375-4378 (2006) was used to synthesize 1,3-dibromo-2-methylpropane from 1,3-dihydroxy-2-methylpropane. Diisopropylethylamine (25.5 g), triphenylphosphine (20.1 g) and CBr4 (25.5 g) were sequentially added to a stirring solution of […] in 100 ml CH2Cl2 at 0 °C. The reaction was stirred for 3-4 h at 0 °C and concentrated under reduced pressure to give a green-brown oil. The oil was dissolved in diethyl ether and water (100 ml each) and the aqueous layer was extracted three times with diethyl ether. The organic extracts were combined and washed with water and brine, and dried over MgSO4. The reaction was concentrated under reduced pressure and applied to flash chromatography on silica 60 (230-400 mesh, 100% cyclohexane). Fractions containing the 1,3-dibromo-2-methylpropane product were combined (as judged by Si-TLC [100% cyclohexene]) and concentrated under reduced pressure resulting in a brown-yellow oil. The dibromopropane oil was used for the synthesis of (R,R)- and (S,S)-BMBA-p-Me as described by (Kobayashi, Y. et al., Org. Lett. 4(3):411-414 (2002). The crude oil was distilled by Kugelrohr at 240 °C to give crude BMPA-p-Me (yellow oil). BMBA-p-Me was purified by HPLC using a C18 column (Waters Xterra, 250 x 4.6 mm) at a flow rate of 0.8 ml min^-1 and a 40 min linear gradient of 50-100 % MeOH at ambient temperature. Fractions were concentrated under reduced pressure and BMBA-p-Me was identified by ^1H-NMR (colorless hygroscopic oil).
Approximately 7.5 mg of the extracted product 2-hydroxy-pentan-3-one was added to 15 mg (R,R)- or (S,S)-BMBA-p-Me (dissolved in 200-300 µl CDCl3) and analyzed by ^13C NMR with the readout adjusted to 0.001 ppm/point (sw = 239 ppm, td = 512k) (Fiorentino, A. et al., Tetrahedron., 62:8952-8958 (2006)). The absolute configuration was determined based on the sign of ΔδRR-SS (δ(R,R)-BMBA-p-Me - δ(S,S)-BMBA-p-Me) for the α-carbons adjacent to the hydroxymethine unit as formulated in the following model shown in Scheme 3 (valid for saturated secondary alcohols of acyclic and cyclic compounds): [drawing 7]
Cofactor regeneration: A prerequisite for the production of α-hydroxycarbonyl compounds is the regeneration of the expensive coenzymes and the stability of the protein catalysts. By coupling two coenzyme-dependent enzyme reactions, NADPH can be continuously regenerated. […]

Gox0644 [4] = biological target: T1, Gox0644; assay: Kinetic constants from purified enzyme by Lineweaver-Burk plots; assay type: biochemical
Protocol: (§2) Determination of pH and temperature optima and enzyme kinetics: The optimum pH for enzyme activities was determined by a modified method of Salusjärvi, T. et al., Appl. Microbiol. Biotechnol. 65:306-314 (2004) using the following buffer system (50 mM final concentration each): sodium acetate pH 4.5 - 6.5, potassium phosphate pH 6.5 - 8.0, Tris-HCl pH 8.0 - 10. Temperature optima for the biocatalysts were determined under standard reaction conditions at temperatures ranging from 20 - 80 °C. The Michaelis constant (Km) for the proteins was determined from purified enzyme by Lineweaver-Burk plots. Assays were performed at optimum pH for each enzyme and at 30 °C using the best substrate and a targeted substrate. The Km for each substrate was calculated using concentrations of 0.0025 to 10 mM, and the Km NAD(P)H and NAD(P) was calculated using concentrations of 0.01 to 0.5 mM
(§3) 2.9 Kinetic parameters of the keto carbonyl reductases: Kinetic constants were determined from purified enzyme by Lineweaver-Burk plots. The Km and Vmax values for the substrates were calculated using concentrations of 0.025 to 10 mM. The optimal pH values and temperatures for enzyme activities are also shown in Tab. 8. Table 8: Summary of kinetic parameters

CCC(=O)C(C)=O = assay: as above; assay type: biochemical, Gluconobacter oxydans; settings: other: 40 mM KPB at optimal pH and 30 °C, substrate 0.025 to 10 mM
Protocol: as §2, §3

O=CC(=O)c1ccccc1 = assay: as above; assay type: biochemical, Gluconobacter oxydans; settings: other: 40 mM KPB at optimal pH and 30 °C, substrate 0.025 to 10 mM
Protocol: as §2, §3

Gox1615 [5] = biological target: T2, Gox1615; assay: as above; assay type: biochemical
Protocol: as §2, §3

[6] = substrate: CC(=O)C=O; assay: as above; assay type: biochemical, Gluconobacter oxydans; settings: other: 40 mM KPB at optimal pH and 30 °C, substrate 0.025 to 10 mM
Protocol: as §2, §3

[7] = substrate: CCC(=O)C(C)=O; assay: as above; assay type: biochemical, Gluconobacter oxydans; settings: other: 40 mM KPB at optimal pH and 30 °C, substrate 0.025 to 10 mM; remark: listed apart in the source
Protocol: as §2, §3

[8] = substrate: CCCC(=O)C(C)=O; assay: as above; assay type: biochemical, Gluconobacter oxydans; settings: other: 40 mM KPB at optimal pH and 30 °C, substrate 0.025 to 10 mM
Protocol: as §2, §3

[9] = substrate: O=CC(=O)c1ccccc1; assay: as above; assay type: biochemical, Gluconobacter oxydans; settings: other: 40 mM KPB at optimal pH and 30 °C, substrate 0.025 to 10 mM; remark: listed apart in the source
Protocol: as §2, §3

Molecule: CC(=O)C(=O)c1ccccc1 [1-phenyl-1,2-propanedione]
- Gox0644 U/mg* (Gox0644 [1]): 75.4 U/mg
- activity (Gox0644 [1]; substrates showing the highest activities): 75 U/mg protein
- Gox1615 U/mg* (Gox1615 [2]): 5.4 U/mg
- Specific Activity (U/mg)* (Gox1615 [2]): 5.4 U/mg
- Product (stereoselective reduction) (Gox0644 [3]; NMR with chiral solvent BMBA-p-Me): 1-phenyl-2R-hydroxy-propanone
- Product (regioselective reduction) (Gox0644 [3]; determined by NMR analysis): 1-phenyl-2-hydroxy-propanone and 1-phenyl-2-hydroxy-1-propanone

- Gox0644 U/mg* (Gox0644 [1]): 74.7 U/mg
- Gox1615 U/mg* (Gox1615 [2]): 19.1 U/mg
- Specific Activity (U/mg)* (Gox1615 [2]): 19.1 U/mg
- Vmax (Gox0644 [4]): 75 U/mg protein
Molecule: O=CC(=O)c1ccccc1 [phenylglyoxal]

Molecule: Gox0644 (Gluconobacter oxydans 621H)
- Km (CCC(=O)C(C)=O): 5.7 mM
- Vmax (CCC(=O)C(C)=O): 69.6 µmol/min x mg
- Km (O=CC(=O)c1ccccc1): 4.8 mM
- Vmax (O=CC(=O)c1ccccc1): 74.7 µmol/min x mg

Molecule: CC(=O)C=O [methylglyoxal]
- Gox0644 U/mg* (Gox0644 [1]): 3.4 U/mg
- Gox1615 U/mg* (Gox1615 [2]): 23.0 U/mg
- Specific Activity (U/mg)* (Gox1615 [2]): 23.0 U/mg
- Vmax (Gox1615 [5]): 23 U/mg protein

B1: Gox1615 (Gluconobacter oxydans 621H) (protein)
chain: MASDTIRIPGIDTPLSRVALGTWAIGGWMWGGPDDDNGVRTIHAALDEGINLIDTAPVYGFGHSEEIVGRALAEKPNKAHVATKLGLHWVGEDEKNMKVFRDSRPARIRKEVEDSLRRLRVETIDLEQIHWPDDKTPIDESARELQKLHQDGKIRALGVSNFSPEQMDIFREVAPLATIQPPLNLFERTIEKDILPYAEKHNAVVLAYGALCRGLLTGKMNRDTTFPKDDLRSNDPKFQKPNFEKYLAAMDEFEKLAEKRGKSVMAFAVRWVLDQGPVIALWGARKPGQVSGVKDVFGWSLTDEEKKAVDDILARHVPNPIDPTFMAPPARD
- Km [6]: 4.3 mM
- Vmax [6]: 23.0 µmol/min x mg
- Km [7]: 4.0 mM
- Vmax [7]: 7.0 µmol/min x mg
- Km [8]: 4.0 mM
- Vmax [8]: 7.0 U/mg protein
- Km [9]: 4.3 mM
- Vmax [9]: 23 U/mg protein
